Assay results taken from patent US7973027B2, “Compound with antimalarial activity and antimalarial drug containing the same as active ingredient” (Nagoya City University, priority 2006, dated 2011).

Tests used:
[1] = test system: Mouse mammary tumor FM3A cells; assay: Evaluation of cytotoxicity; assay type: cell-based; conditions: 37° C., 48 hours, values in FIG. 8 only, stated in words
Description: (2) Evaluation Method of Cytotoxicity (See Hye-Sook Kim; Yasuharu Shibata; Yusuke Wataya; Kaoru Tsuchida; Araki Masuyama; Masatomo Nojima. J. Med. Chem. 1999, 42, 2604-2609)
The concentration of […] (Mouse mammary tumor FM3A cells) is adjusted to 5×10^4 cells/ml, and 5 μl of DMSO solutions of antimalarial drug candidate compounds prepared at various concentrations is added. The cells area cultured at 37° C. for 48 hours and then, the number of surviving cells is counted by the use of microcell counter CC-130 (To a Medical Electric Co.). The measurement results are compared with the results obtained from the control experiment so as to calculate EC50 value.

[2] = test system: Plasmodium falciparum (ATCC 30932, FCR-3 strain); assay: Evaluation of antimalarial activity (infected human erythrocytes, Giemsa staining); assay type: cell-based; conditions: 37° C., 72 hours, values in FIG. 8 only, stated in words
Description: Human erythrocyte infected with malaria parasite (Plasmodium falciparum (ATCC 30932, FCR-3 strain)) is prepared on a 24-well culture plate and 5 μl each of DMSO solutions of antimalarial drug candidate compounds prepared at various concentrations is added. Thereafter, the erythrocyte is cultured at 37° C. for 72 hours. A part of the cultured erythrocyte is subjected to Giemsa staining. Then, the number of cells infected with malaria is counted under microscope. EC50 values are calculated based on the measurement values.

antimalarial activity (EC50) [2]: higher antimalarial activity
Compound: CN(CCNC(=O)C=Cc1c[nH]cn1)CCNc1ccnc2cc(Cl)ccc12 [uro-2Q, N-(2-{[2-(7-Chloro-quinolin-4-ylamino)ethyl]methylamino}ethyl)-3-(1H-imidazol-4-yl)acrylamide]
cytotoxicity (EC50) [1]: lower toxicity as compared with existing drugs
